Assay results: paper PMC8298375 (Naunyn-Schmiedeberg's Archives of Pharmacology, 2021)
Where two headings read alike, the source gives them in different places.

What was measured:
[1] = Pharmacokinetic study in scopolamine-induced amnesic rats (plasma); format: in vivo, Wistar rats; conditions: for Absolute F: absolute bioavailability; for Cl_F_obs: clearance; for DN Cmax: dose-normalised Cmax; for Vz_F_obs: volume of distribution
Description: Samples were then centrifuged at 10,000 rpm for 5 min, and plasma was stored at − 70 °C until analysis.
Briefly, to an aliquot of 100 µL of rat plasma, 10 µL of IS (1 µg/mL) was added and vortexed for 30 s. Then, 1 mL of TBME tertiary methyl butyl ether) was added and vortexed for 10 min, thereafter centrifuged at 10,000 rpm for 5 min. From the supernatant, 0.9 mL of organic solvent was aspirated and evaporated in a turbo evaporator (Zymark, Hopkinton, MA, USA) at 50 ± 2 °C under the stream of nitrogen. The dried residue was reconstituted with 150 µL of mobile phase, and 50 µL was injected for the HPLC analysis. A full validation according to the US-FDA guidelines was performed in rat plasma. Plasma samples were analyzed by previously validated HPLC with fluorescence detection method (Arumugam [2011]).
HPLC analysis was carried out on Shimadzu LC-20AD Prominence (Shimadzu Corporation, Kyoto, Japan) equipped with LC-20AD pump, RF-10A-XL fluorescence detector, column oven (CTO-10AS VP), autosampler SIL-20AC HT, and LC solution version 1.24 SP1. The column oven temperature was maintained at 25 °C. The chromatographic separation was achieved by Intersil, ODS-3 V, C18 (250 × 4.6 mm, 5 µm) column (GL Sciences Inc., Japan). Isocratic elution was performed with ammonium acetate buffer (20 mM, pH 4.5) and acetonitrile 74:26 (v/v) as mobile phase. The flow rate was maintained at 1 mL/min, and the injection volume was 50 µL. Fluorimetric detection was used, and excitation and emission wavelength were 220 nm and 293 nm, respectively. The sensitivity of the detector was “medium”, and the response kept at 3. Venlafaxine (IS) was prepared separately in methanol to yield primary standard solutions with a concentration of 1 mg/mL.
The pharmacokinetic parameters were calculated using non-compartmental analysis, PK solution 2.1software (Summit Research Services, Montrose, Colorado, USA). The area under the curve (AUC) from zero to infinity is calculated using the trapezoidal method. The terminal elimination rate constant (β) was obtained by plotting log-linear concentration versus time; the corresponding half-life (t1/2β) was calculated by 0.693/β. […] The clearance (CL) and volume of distribution (Vd) were calculated as follows: CL=Dose/AUC0-∞,Vd(apparent)=CL/β

[2] = tested on: scopolamine-induced amnesia rats; assay: Passive avoidance test, scopolamine-induced amnesia (acute model); format: in vivo, Wistar rats; conditions: Mean ± SEM; for Latency time: time to enter darker compartment
Description: In the acute model, the rats were trained for Morris water maze (MWM) and passive avoidance test (PAT) tasks in the first 4 days. On the 5th day, 30 min after scopolamine administration, respective treatments were given to all the groups. Fifteen minutes thereafter, the test trials were conducted in MWM and PAT.
The passive avoidance apparatus consists of a larger illuminated compartment and a smaller dark compartment. Each consists of a square box, with a floor grid of 50 × 50 cm and wooden walls of 35-cm height in larger compartment. Larger box was illuminated by 15 W Philips CFL lamp. A smaller dark compartment of 15 × 15 cm with an electrified floor is connected to a constant current stimulator. An opening 6 × 6 cm in between the two compartments was closed using a transparent plexiglass sliding door. The test procedure was carried out in three phases, exploration, learning, and retention (Praveenkumar [2019]).
First day, the animal was placed in the center of the illuminated larger compartment facing away from the entrance to the small darker compartment and allowed to explore the apparatus, i.e., both compartments for 3 min. Total time spent in the larger and smaller compartments and the number of crossings (from larger to smaller compartments and vice versa; a measure of exploratory behavior) were noted. On the second day, animal was placed in the illuminated larger compartment facing away from the entrance to the darker compartment. Once the animal entered the darker compartment, the entrance to the larger compartment was closed, and three strong electric foot shocks (50 Hz, 0.5 mA, 2 s) with 10-s intervals were applied. On the third day, rats were placed in the illuminated larger compartment and allowed to explore both the compartments for 3 min. The parameters assessed are latency time to enter into darker compartment, time spent in the darker and brighter compartments, and the number of crossings between the compartments.

AChE = format: in vivo, rat; conditions: colchicine model
Description: Thiocholine, which was produced due to the hydrolysis of acetylthiocholine (ACTI) by AChE, was estimated by making it react with 5, 5′-dithiobis-(2-nitrobenzoic acid) (DTNB). The chemical, 5-thio-2-nitrobenzoic acid (yellow color complex), which was released due to reaction was estimated using a UV spectrophotometer in the range of 400 to 420 nm with maximal absorption at 412 nm. One hundred microliter of blank rat plasma was taken in the polypropylene vials. To this, 2.8 mL of phosphate buffer (0.01 M, pH 8) and 100 µL of DTNB reagents were added and mixed well. Then, 20 µL of ACTI (26.01 mg/mL of Milli-Q water) was added to the contents of the cuvette to initiate the enzyme reaction. The reaction kinetics was monitored at different time intervals (0, 1, 2, 3, 4 min), and absorbance was noted. 2.8 mL buffer (0.01 M, pH 8.0) and 100 µL DTNB reagent served as blank. Concentrations in the range of 0.03–30 mM were prepared using methanol as a diluent. […] Substrate concentration and reaction time were optimized such that sufficient concentration of ACTI is available to bind with the enzyme to initiate the reaction and also it should not saturate the enzyme. In this study, varying concentrations (100–1000 µM) of ACTI were prepared, and reaction kinetics were observed. In general, the maximum time should be either 2–4 min or even less, because the enzyme might undergo degradation. In the present study, up to 4 min of reaction kinetics (changing the optical density or absorbance) was measured. One unit of AChE activity is defined as the number of µmol of acetylthiocholine iodide hydrolyzed per minute. The specific activity of AChE is expressed in moles/min/mg of protein (Kaur et al. [2015]): AChEActivity=(abs.permin×1000×volumeofenzyme)/(13600×TRM)AChEActivity=abovevalue×1000(nanomolar/min/mL)
where 13,600 = molar extinction coefficient of DTNB: 1000-molar conversion factor: (TRM) total reaction mixture 3 mL: volume of enzyme (0.1 mL).

[3] = Wistar, rat, oral (ORSM), other: intranasal (INRSM)

CCN(C)C(=O)Oc1cccc([C@H](C)N(C)C)c1 [INRSM, rivastigmine]
MRT [1]: 32.12 ± 16.46 min | Cmax ([1]; Wistar, rat, inhaled or intranasal, 2 mg/kg): 994 ± 471 ng/mL | Tmax [1, 3]: 5 min | half-life [1, 3]: 30.5 ± 10.8 min | k el [1, 3]: 0.000378 s⁻¹ | AUC(0-inf) ([1]; Wistar, rat, other: intranasal, 2 mg/kg): 330 ng·h/mL | Absolute F [1]: 65.44 ± 14.57% | Cl_F_obs [1]: 100.95 ± 36.47 mL/min | DN Cmax [1]: 497.23 ± 235.52 ng/mL | Vz_F_obs [1]: 4.45 ± 1.72 L | Acquisition time ([2]; listed as SCP + INRSM): 11.59 ± 2.37 s | No. of crossings ([2]; listed as SCP + INRSM): 2.17 ± 0.54 | Time spent in bright comp. ([2]; listed as SCP + INRSM): 109.67 ± 11.65 s | Time spent in darker comp. ([2]; listed as SCP + INRSM): 70.33 ± 11.65 s | Latency time ([2]; listed as SCP + INRSM): 60.11 ± 16.82 a s | peak AChE inhibition in rat plasma (AChE): 76.75% | time of peak AChE inhibition in rat plasma (AChE): 15 min | % AChE Inhibition in rat plasma (AChE; 0 min, listed as COL + INRSM): 0.00 ± 0.0608% | % AChE Inhibition in rat plasma (AChE; 5 min, listed as COL + INRSM): 75.74 ± 0.0358% | % AChE Inhibition in rat plasma (AChE; 10 min, listed as COL + INRSM): 70.41 ± 0.0540% | % AChE Inhibition in rat plasma (AChE; 20 min, listed as COL + INRSM): 73.66 ± 0.0482% | % AChE Inhibition in rat plasma (AChE; 30 min, listed as COL + INRSM): 67.33 ± 0.0474% | % AChE Inhibition in rat plasma (AChE; 45 min): 64.43 ± 0.0388% | % AChE Inhibition in rat plasma (AChE; 90 min, listed as COL + INRSM): 55.83 ± 0.0401% | % AChE Inhibition in rat plasma (AChE; 120 min, listed as COL + INRSM): 47.15 ± 0.0392% | % AChE Inhibition in rat plasma (AChE; 180 min, listed as COL + INRSM): 41.37 ± 0.0410%

CCN(C)C(=O)Oc1cccc([C@H](C)N(C)C)c1 [ORSM, rivastigmine]
MRT ([1]; Wistar, rat, oral (ORSM), other: intranasal (INRSM), read-out: MRT (converted)): 27.6 min | clearance ([1]; Wistar, rat, oral, 2.5 mg/kg, read-out: clearance rate): 1500 ± 760 mL/min | Vd ([1]; Wistar, rat, oral, 2.5 mg/kg, read-out: volume of distribution): 29.2 ± 14.3 L/kg | Tmax ([1]; Wistar, rat, po): 15 min | half-life ([1]; Wistar, rat, po): 13.5 ± 5.79 min | k el ([1]; Wistar, rat, po): 0.000857 s⁻¹ | AUC(0-inf) ([1]; Wistar, rat, po, 2.5 mg/kg): 27.7 ng·h/mL | Cmax ([1]; Wistar, rat, po, 2.5 mg/kg): 56.3 ± 27.1 ng/mL | Absolute F [1]: 4.39 ± 1.82% | Absolute F ([1]; listed as oral rivastigmine): 4.39 ± 1.82% | Cl_F_obs [1]: 1502.59 ± 763.25 mL/min | DN Cmax [1]: 22.51 ± 10.82 ng/mL | Vz_F_obs [1]: 29.23 ± 14.35 L | Acquisition time ([2]; listed as SCP + ORSM): 14.66 ± 2.61 s | No. of crossings ([2]; listed as SCP + ORSM): 2.50 ± 0.85 | Time spent in bright comp. ([2]; listed as SCP + ORSM): 103.50 ± 16.38 s | Time spent in darker comp. ([2]; listed as SCP + ORSM): 76.50 ± 16.38 s | Latency time ([2]; listed as SCP + ORSM): 41.63 ± 15.66 a s | peak AChE inhibition in rat plasma (AChE): 69.56% | time of peak AChE inhibition in rat plasma (AChE): 45 min | % AChE Inhibition in rat plasma (AChE; 0 min, listed as COL + ORSM): 0.00 ± 0.0811% | % AChE Inhibition in rat plasma (AChE; 5 min, listed as COL + ORSM): 61.96 ± 0.0469% | % AChE Inhibition in rat plasma (AChE; 10 min, listed as COL + ORSM): 66.76 ± 0.0195% | % AChE Inhibition in rat plasma (AChE; 15 min): 65.00 ± 0.0292% | % AChE Inhibition in rat plasma (AChE; 20 min, listed as COL + ORSM): 66.57 ± 0.0344% | % AChE Inhibition in rat plasma (AChE; 30 min, listed as COL + ORSM): 66.82 ± 0.0101% | % AChE Inhibition in rat plasma (AChE; 60 min, listed as COL + ORSM): 67.53 ± 0.0096% | % AChE Inhibition in rat plasma (AChE; 90 min, listed as COL + ORSM): 61.88 ± 0.0149% | % AChE Inhibition in rat plasma (AChE; 120 min, listed as COL + ORSM): 60.64 ± 0.0186% | % AChE Inhibition in rat plasma (AChE; 180 min, listed as COL + ORSM): 47.43 ± 0.0393%
